These results are taken from US20080050355A1, “PROTECTION OF BIOACTIVE FOOD INGREDIENTS BY MEANS OF ENCAPSULATION” (COMPAGNIE GERVAIS DANONE, priority 2004, published 2008).

“Also recorded” adds a separate entry of the source. Where two headings read alike, the source gives them in different places. Peptide text beside a SMILES is read from it.

The subject of data set [1] is pathogenic strains. As to conditions: In vitro, cited from earlier work.
The conditions of data set [2]: Dog, 10 g/300 mL water by stomach tube; cancelled by naloxone; Defilippi 1986; cited from earlier work.
For data set [3] the following is noted: In vivo animal; Migliore-Samour 1988; cited from earlier work.
The conditions of data set [4]: Normal rats; Nakamura 1995; cited from earlier work.
For data set [5] the following is noted: Human hypertension (36 patients), after 8 weeks' ingestion of 95 mL/d; Hata 1996; cited from earlier work.
For data set [6] the following is noted: Hypertensive rats, after ingestion; Nakamura 1995; cited from earlier work.
Data set [7] has as its system platelet aggregation. As to conditions: In vitro; Jollès 1986; cited from earlier work.
Data set [8] concerns ferment YC380 (Chr. Hansen). Briefly: Fermentation of milk mix containing hydrolysate up to pH 4.7, residual peptides by HPLC-MS/MS. The class given is physicochemical. On the procedure: FIG. 3: Compared peptide profiles (LC-MS/MS chromatograms) of a milk “mix” containing 1.5 g/L DMV C12® hydrolysate before (1) and after (2) fermentation up to pH 4.7 by the lacetic ferment Hansen YC380. Almost all the peptides of the hydrolysate, including the bioactive C12 peptide (fragment αS1[23-34] disappeared after metabolisation by the ferment strains.
(§1) Protocol: the medium was prepared by hydrating a skimmed milk powder at 120 g/L, to which 1.5 g/L of Lactium® ingredient is added (corresponding to approximately 30 mg/L αs1 [91-100] bioactive peptide) then pasteurised at 95° C. for 8 minutes.
(§2) The lacetic ferment was added at a percentage of 0.02% and fermentation was conducted at the optimal temperature of the chosen ferment (between 37 and 42° C.) up to a pH of 4.70.
Analysis of the residual peptides, in particular of the bioactive peptide αS1[91-100], was conducted using a HPLC method coupled to a detector of MS/MS type as described below: • the sample was prepared by diluting the fermented medium in a mixture of water, methanol and trifluoroacetic acid (50/50/0.1%) to a ratio of approximately 1 to 6. […] For example the αS1[91-100] peptide was isolated from its mass (double charged ion of mass 634.5 Da) and quantified from the intensity of its characteristic daughter ions after fragmenting (ions with m/z 991.5 Da, 771.5 Da and 658.3 Da). […]

Data set [9] concerns fermented mass. Briefly: Storage of fermented mass with Lactium encapsulated in palm oil emulsion. The format is physicochemical. On the procedure: FIG. 6: Illustration of the change in content of encapsulated bioactive ingredient over time (storage at 4° C.).
FIG. 7: Compared peptide profiles (LC-MS/MS chromatograms) of a milk mix containing 1.5 g/L Lactium® added in the form of an emulsion in palm oil according to the present invention, immediately after addition to the fermented mass (1) and after 14 days' storage at 10° C. (2).
The oil was melted at 50° C. to obtain total absence of crystals, and the Lactium® containing the bioactive food ingredient αS1(91-100] was gradually added under magnetic stirring (maintained at 50° C.).
A type of syrup was prepared from water and the premix of palm oil/bioactive food ingredient. The bioactive food ingredient was gradually added to the water (30° C.) under Ultraturax stirring (22000 rpm), the palm content of the solution being arbitrarily fixed at […].
The emulsion obtained was easily pumpable at 30° C.-35° C., but became progressively firmer as soon as the temperature fell to below 25° C.-30° C. (progressive recrystallisation of the palm oil). The use of a food emulsifier (e.g. Lactem® supplied by Danisco) to the proportion of 0.5%/fat led to obtaining a population of fatty globules that was less heterogeneous.

Data set [10] is described as follows: Storage of fermented then thermised product with peptide added after fermentation. The format is physicochemical. The conditions noted are these: thermised at 75° C. for 1 minute, stored at 10° C. until BBD (FIG. 5). On the procedure:
FIG. 5: Curves illustrating changes in the residual content of αS1[91-100] bioactive peptide added after fermentation, in a product fermented and then thermised at 75° C. for 1 minute and stored at 10° C. until the Best Before Date (BBD).
This solution effectively has numerous drawbacks: • thermisation of a fermented milk mass implies the use of stabilisers added before the heat treatment (pectins, starches, carrageenans, etc.) which complicates the method and substantially increases the cost of the formula; • the industrial production line is more complex and requires specific, higher investment; • the product no longer benefits from quality labels related to products containing living ferments (yoghurt type), and thereby loses the benefits associated with the consumption of lacetic ferments; • the organoleptic impact (generally negative) is significant.

The test system of data set [11] is ferment consisting of a mixture of strains 1-2783, 1-2774, 1-2835 and 1-1968. Briefly: Fermentation of milk mix containing Lactium up to pH 4.70, residual peptides by HPLC-MS/MS. The format is physicochemical. The conditions noted are these: 1.5 g/L Lactium® added before fermentation. On the procedure:
as §1, §2
Analysis of the residual peptides, in particular of the bioactive peptide αS1[91-100], was conducted using a HPLC method coupled to a detector of MS/MS type as described below: • the sample was prepared by diluting the fermented medium in a mixture of water, methanol and trifluoroacetic acid (50/50/0.1%) to a ratio of approximately 1 to 6. […] The peptides were eluted in conventional manner against an increasing gradient of solvent B (Acetonitrile+0.100% formic acid) in solvent A (Water+0.106% formic acid) for a time of 40 min to 2 hours in relation to desired resolution. • detection was made using a specific detector of MS/MS type, for example of ion trap type such as the Esquire 3000+(Bruker, Daltonique, rue de l'Industrie 67166 Wissembourg Cedex) adjusted either for global analysis of the peptide content (MS-MS mode) or for precise, specific quantification of a peptide from its characteristic fragments. […]

The test system of data set [12] is Pure strains (Lactobacillus). Briefly: Fermentation of reconstituted milk with 1.5 g/L Lactium by pure strains. The class given is physicochemical. As to conditions: milk mix containing 1.5 g/L Lactium®, fermentation halted at pH 4.7. On the procedure: (§3) Analysis of the residual peptides, in particular of the bioactive peptide αS1[91-100], was conducted using a HPLC method coupled to a detector of MS/MS type as described below: • the sample was prepared by diluting the fermented medium in a mixture of water, methanol and trifluoroacetic acid (50/50/0.1%) to a ratio of approximately 1 to 6. The supernatant after centrifuging formed the sample representing the peptide content of the fermented medium. • this sample was injected into a HPLC chromatography system of Agilent 1100 type (Agilent Technologies France, 1 rue Galvani 91745 Massy Cedex France) equipped with a column adapted for peptide analysis of Waters Symetry® type (5 μm 2.1×150 mm, WAT056975, Waters, France, 5 Rue Jacques Monod, 78280 Guyancourt) at a temperature of 40° C. and flow rate 0.25 ml/min. The peptides were eluted in conventional manner against an increasing gradient of solvent B (Acetonitrile+0.100% formic acid) in solvent A (Water+0.106% formic acid) for a time of 40 min to 2 hours in relation to desired resolution. • detection was made using a specific detector of MS/MS type, for example of ion trap type such as the Esquire 3000+(Bruker, Daltonique, rue de l'Industrie 67166 Wissembourg Cedex) adjusted either for global analysis of the peptide content (MS-MS mode) or for precise, specific quantification of a peptide from its characteristic fragments. For example the αS1[91-100] peptide was isolated from its mass (double charged ion of mass 634.5 Da) and quantified from the intensity of its characteristic daughter ions after fragmenting (ions with m/z 991.5 Da, 771.5 Da and 658.3 Da). In even more precise manner, an internal standard consisting of the same synthetic peptide deuterated twice (characteristic fragment of 993.5 Da) allowed any matrix-related interferences to be overcome and taken into account.
(§4) To verify that this phenomenon is not particular to the two ferments used in paragraph 1.1) above, the main industrial ferments and different pure strains entering into the composition of these ferments, were tested on the same test basis: milk reconstituted from milk powder, to which Lactium® was added at a dose of 1.5 g/L, was fermented under standard conditions (optimal ferment temperature between 37 and 42° C., halting of fermentation at pH 4.7, two repeats). Analysis of the level of αS1[91-100] bioactive peptide was conducted on the sample before and after fermentation.
(§5) In Table 3 above, which reflects consumption of the bioactive peptide aS1[91-100] by different ferments and industrial strains during fermentation of a milk mix containing 1.5 g/L Lactium®, the pure strains were identified by their numbers and respective date of depositing with the CNCM (Institut Pasteur, Paris France).

Data set [13] relates to Pure strains (S. thermophilus). The description is as above. The class given is physicochemical. The conditions noted are these: milk mix containing 1.5 g/L Lactium®, fermentation halted at pH 4.7. Here is the method: as §3, §4, §5

As for `CC[C@H](C)[C@H](NC(=O)[C@@H]1CCCN1C(=O)[C@H](Cc1cnc[nH]1)NC(=O)[C@H](CCCCN)NC(=O)[C@@H]1CCCN1C(=O)[C@@H](N)CCCNC(=N)N)C(=O)N[C@@H](CCCCN)C(=O)N[C@@H](Cc1cnc[nH]1)C(=O)N[C@@H](CCC(N)=O)C(=O)NCC(=O)N[C@@H](CC(C)C)C(=O)N1CCC[C@H]1C(=O)N[C@@H](CCC(N)=O)C(=O)N[C@@H](CCC(=O)O)C(=O)N[C@H](C(=O)N[C@@H](CC(C)C)C(=O)N[C@@H](CC(N)=O)C(=O)N[C@@H](CCC(=O)O)C(=O)N[C@@H](CC(N)=O)C(=O)N[C@@H](CC(C)C)C(=O)N[C@@H](CC(C)C)C(=O)N[C@@H](CCCNC(=N)N)C(=O)N[C@@H](Cc1ccccc1)C(=O)O)C(C)C` [isracidin] (H-RPKHPIKHQGLPQEVLNENLLRF-OH), the “growth of pathogenic strains” value in data set [1] (Lahov 1996) is on record as “Inhibited growth of pathogenic”.

In the case of Casein, the small intestine motility result in data set [2] is listed as “inhibition of small intestine”.

Take “Casein 63-68: fragment 63-68 of bovine β-casein (PGPIPN; UniProt P02666 78-83, looked up, fragment)”: in data set [3], the in vivo protection entry is listed as “No in vivo protection”.

“Casein 191-193: fragment 191-193 of bovine β-casein (LLY; UniProt P02666 206-208, looked up, fragment)”: in [3], the in vivo protection entry was “No in vivo protection”.

In the case of Il-Pro-Pro [Il-Pro-Pro (IPP)], the blood pressure result in [4] is listed as “Normal rats: no effect”; in [5], “reduced blood pressure”; in data set [6], “ingestion, reduced blood”.

As for Lactoferricin, the “growth of pathogenic strains” value in [1] (Tomita 1994-Zucht 1995) is reported as “Inhibited growth of pathogenic strains”.

For “Peptide 106-116 of bovine κ-casein: fragment 106-116 of bovine κ-casein (MAIPPKKNQDK; UniProt P02668 127-137, looked up, fragment)”, in data set [7], the platelet aggregation entry is on record as “Inhibits”.

Val-Pro-Pro [Val-Pro-Pro (VPP)]: the blood pressure entry in data set [4] is on record as “Normal rats: no effect”; in data set [5], “reduced blood pressure”; in [6] it was “ingestion, reduced blood”.

Take “αS1[23-34]: bioactive C12 peptide, present in the C12 ingredient by DMV International and in Lactium® (FFVAPFPEVFGK; UniProt P02662 38-49, looked up, fragment)”: the “peptides after fermentation (LC-MS/MS peptide profile)” value in data set [8] (milk mix containing 1.5 g/L DMV C12® hydrolysate, fermentation up to pH 4.7 (FIG. 3)) was “disappeared”. In data set [9] (1.5 g/L Lactium® as emulsion in palm oil, after 14 days' storage at 10° C. (FIG. 7)), the “protection of peptide (LC-MS/MS peptide profile)” value is recorded as “well protected”.

Take “αS1[91-100]: bioactive peptide with relaxing properties contained in the hydrolysate of milk proteins marketed by Ingredia as Lactium® (YLGYLEQLLR; UniProt P02662 106-115, looked up, fragment)”: the “stability of the peptide in heat-treated fermented product” value in [10] is on record as “possible to ensure the stability; also recorded: possible to preserve”. Moreover, the “bioactive peptide consumed after fermentation” value in [8] (1.5 g/L Lactium® added before fermentation, up to pH 4.70) is recorded as “more than 95%”; in data set [11], “more than 95%”. For the same compound, in [9] (encapsulated in palm oil emulsion, added to fermented white mass, storage at 4° C. (FIG. 6)), the “content of encapsulated bioactive ingredient over time” value is “stability”. Moreover, the “% αS1[91-100] peptide remaining after fermentation” value in data set [12] (strain 1-1519 (30 Dec. 1994)) is 0.1%; in data set [12] (strain 1-1632 (24 Oct. 1995)), 0.2%; in data set [12] (strain 1-1968 (14 Jan. 1998)) it was 1.6%; in data set [12] (strain 1-2809 (19 Feb. 2002)) it was 0.4%; in data set [13] (strain 1-1477 (22 Sep. 1994)), 0.3%; in data set [13] (strain 1-1630 (24 Oct. 1995)), 0.3%.
